Experimental data: PubChem BioAssay AID256 (DTP/NCI, 2004)
Toxic doses and inconclusive results are not listed. Rule for the calls: active = survival T/C of 150% or more; inactive = T/C below 125% in these data.

System: CD2F1 mice, L1210 leukemia ip, survival T/C
Assay: NCI In Vivo Anticancer Drug Screen. Data for tumor model L1210 Leukemia (intraperitoneal) in CD2F1 (CDF1) mice
Conditions: higher = longer survival
In short: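 Compound-dosed mice with transplantable tumor versus matched vehicle controls; endpoint ratio T/C reported.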

[1] = endpoint: mean survival time, dose: 50.0 mg/kg/injection, schedule: Q01DX009 (ip), vehicle: saline with Tween-80
[2] = endpoint: mean survival time, dose: 100.0 mg/kg/injection, schedule: Q01DX009 (ip), vehicle: saline with Tween-80
[3] = endpoint: mean survival time, dose: 50.0 mg/kg/injection, schedule: Q04DX003 (ip), vehicle: saline with Tween-80
[4] = endpoint: mean survival time, dose: 100.0 mg/kg/injection, schedule: Q01DX001 (ip), vehicle: saline with Tween-80
[5] = endpoint: mean survival time, dose: 100.0 mg/kg/injection, schedule: Q04DX003 (ip), vehicle: saline with Tween-80
[6] = endpoint: mean survival time, dose: 200.0 mg/kg/injection, schedule: Q01DX001 (ip), vehicle: saline with Tween-80
[7] = endpoint: mean survival time, dose: 200.0 mg/kg/injection, schedule: Q04DX003 (ip), vehicle: saline with Tween-80
[8] = endpoint: mean survival time, dose: 200.0 mg/kg/injection, schedule: Q01DX009 (ip), vehicle: saline with Tween-80
[9] = endpoint: mean survival time, dose: 400.0 mg/kg/injection, schedule: Q04DX003 (ip), vehicle: saline with Tween-80
[10] = endpoint: mean survival time, dose: 400.0 mg/kg/injection, schedule: Q01DX009 (ip), vehicle: saline with Tween-80
[11] = endpoint: mean survival time, dose: 75.0 mg/kg/injection, schedule: Q01DX001 (ip), vehicle: saline
[12] = endpoint: mean survival time, dose: 150.0 mg/kg/injection, schedule: Q01DX001 (ip), vehicle: saline
[13] = endpoint: mean survival time, dose: 300.0 mg/kg/injection, schedule: Q01DX001 (ip), vehicle: saline

Measured: T/C

CN1CCC(c2ccccc2)(c2ccccc2)OC1
inactive: endpoint: mean survival time, dose: 25.0 mg/kg/injection, schedule: Q01DX009 (ip), vehicle: saline with Tween-80 106 % of control | [1] 98 % of control | [2] 110 % of control

O=C(O)c1nccc2c([N+](=O)[O-])cccc12
inactive: endpoint: mean survival time, dose: 100.0 mg/kg/injection, schedule: Q01DX009 (ip), vehicle: acetone 95 % of control | endpoint: mean survival time, dose: 200.0 mg/kg/injection, schedule: Q01DX009 (ip), vehicle: acetone 95 % of control | endpoint: mean survival time, dose: 400.0 mg/kg/injection, schedule: Q01DX009 (ip), vehicle: acetone 98 % of control

Cc1ccc(S(=O)(=O)OC(C#N)c2ccccc2)cc1 (centres undefined)
inactive: [1] 100 % of control | [3] 102 % of control | [4] 98 % of control | [2] 101 % of control | [5] 101 % of control | [6] 105 % of control | [7] 107 % of control

O=C(N/N=C/c1ccc(O)cc1O)c1cccnc1
inactive: endpoint: mean survival time, dose: 6.25 mg/kg/injection, schedule: Q01DX009 (ip), vehicle: olive oil, sesame oil, peanut oil 102 % of control | endpoint: mean survival time, dose: 12.5 mg/kg/injection, schedule: Q01DX009 (ip), vehicle: olive oil, sesame oil, peanut oil 98 % of control | endpoint: mean survival time, dose: 25.0 mg/kg/injection, schedule: Q01DX009 (ip), vehicle: olive oil, sesame oil, peanut oil 98 % of control | endpoint: mean survival time, dose: 50.0 mg/kg/injection, schedule: Q01DX009 (ip), vehicle: olive oil, sesame oil, peanut oil 98 % of control | endpoint: mean survival time, dose: 100.0 mg/kg/injection, schedule: Q01DX009 (ip), vehicle: olive oil, sesame oil, peanut oil 100 % of control

CC(=O)NNC(=O)c1ccc(Br)cc1
inactive: [2] 107 % of control | [8] 119 % of control

Cn1nnc(-c2nn[nH]n2)n1
inactive: [4] 105 % of control | [5] 106 % of control | [6] 104 % of control | [7] 98 % of control | endpoint: mean survival time, dose: 400.0 mg/kg/injection, schedule: Q01DX001 (ip), vehicle: saline with Tween-80 94 % of control | [9] 97 % of control

COc1ccc(NC(=O)Nc2cccc([N+](=O)[O-])c2OC)cc1
inactive: endpoint: mean survival time, dose: 200.0 mg/kg/injection, schedule: Q04DX002 (ip), vehicle: saline with Tween-80 86 % of control | endpoint: mean survival time, dose: 400.0 mg/kg/injection, schedule: Q04DX002 (ip), vehicle: saline with Tween-80 96 % of control

C=C1C(=O)O[C@@H]2[C@H]1[C@@H](OC(C)=O)C[C@H](C)[C@@H]1CCC(=O)[C@@]21C
inactive: [2] 93 % of control | [8] 89 % of control | [10] 92 % of control

Cc1nc(-c2ccccc2)c(Cc2c(O)ccc3ccccc23)c(=O)[nH]1
inactive: endpoint: mean survival time, dose: 100.0 mg/kg/injection, schedule: Q01DX001 (ip), vehicle: saline 97 % of control | endpoint: mean survival time, dose: 200.0 mg/kg/injection, schedule: Q01DX001 (ip), vehicle: saline 100 % of control | endpoint: mean survival time, dose: 400.0 mg/kg/injection, schedule: Q01DX001 (ip), vehicle: saline 100 % of control

CCCCCCCCCCCCCCCCOc1ccc(S(=O)(=O)NC2CCCCC2)cc1N
inactive: [5] 104 % of control | [7] 94 % of control | [9] 96 % of control

CNC(=O)OCc1c(COC(=O)NC)c(-c2ccccc2)n(C)c1-c1ccccc1
inactive: endpoint: mean survival time, dose: 3.12 mg/kg/injection, schedule: Q01DX009 (ip), vehicle: distilled water + Tween-80 111 % of control | endpoint: mean survival time, dose: 6.25 mg/kg/injection, schedule: Q01DX009 (ip), vehicle: distilled water + Tween-80 111 % of control | endpoint: mean survival time, dose: 50.0 mg/kg/injection, schedule: Q01DX009 (ip), vehicle: distilled water + Tween-80 111 % of control

O=C(OCCCCI)c1ccccc1
inactive: [11] 97 % of control | [12] 102 % of control | [13] 97 % of control

CC(C)CN1CCOCC1
inactive: [1] 95 % of control | [2] 97 % of control | [5] 107 % of control | [7] 98 % of control

CCCCCCC[CH2][Sn]1([CH2]CCCCCCC)[O]CC2OC(n3cc(C)c(=O)[nH]c3=O)CC2[O]1 (centres undefined)
inactive: endpoint: mean survival time, dose: 12.5 mg/kg/injection, schedule: Q01DX005 (ip), vehicle: other 94 % of control | endpoint: mean survival time, dose: 25.0 mg/kg/injection, schedule: Q01DX005 (ip), vehicle: other 100 % of control | endpoint: mean survival time, dose: 50.0 mg/kg/injection, schedule: Q01DX005 (ip), vehicle: other 114 % of control

O=C1c2ccccc2C(=O)c2ccccc21
inactive: [2] 93 % of control | [5] 87 % of control | [8] 100 % of control | [7] 93 % of control | [10] 94 % of control | [9] 88 % of control

NCC(S)c1ccc(Cl)cc1 (centres undefined)
inactive: endpoint: mean survival time, dose: 12.5 mg/kg/injection, schedule: Q04DX003 (ip), vehicle: saline 98 % of control | endpoint: mean survival time, dose: 25.0 mg/kg/injection, schedule: Q04DX003 (ip), vehicle: saline 93 % of control | endpoint: mean survival time, dose: 50.0 mg/kg/injection, schedule: Q04DX003 (ip), vehicle: saline 96 % of control

O=[N+]([O-])c1ccc(S(=O)(=O)OCc2ccccc2OS(=O)(=O)c2ccc([N+](=O)[O-])cc2)cc1
inactive: endpoint: mean survival time, dose: 25.0 mg/kg/injection, schedule: Q04DX003 (ip), vehicle: saline with Tween-80 109 % of control | [3] 106 % of control | [5] 93 % of control

CC1CN1C(=O)OCCOC(=O)N1CC1C (centres undefined)
inactive: endpoint: mean survival time, dose: 200.0 mg/kg/injection, schedule: Q01DX Z (ip), vehicle: saline 120 % of control | endpoint: mean survival time, dose: 300.0 mg/kg/injection, schedule: Q01DX Z (ip), vehicle: saline 117 % of control | endpoint: mean survival time, dose: 450.0 mg/kg/injection, schedule: Q01DX Z (ip), vehicle: saline 117 % of control

CCOC(=O)Nc1cc(N(C)C)c(N)c(N)n1
inactive: endpoint: mean survival time, dose: 100.0 mg/kg/injection, schedule: Q01DX001 (ip), vehicle: carboxymethylcellulose (CMC) 100 % of control | endpoint: mean survival time, dose: 200.0 mg/kg/injection, schedule: Q01DX001 (ip), vehicle: carboxymethylcellulose (CMC) 100 % of control

Nc1cccc(/C=C/c2nc(N)nc(N)c2-c2ccc(Cl)c(Cl)c2)c1
inactive: [11] 91 % of control | [12] 92 % of control | [13] 91 % of control

CCOP(=S)(OCC)S/C(C(=O)NC)=C(/C)O
inactive: endpoint: mean survival time, dose: 100.0 mg/kg/injection, schedule: Q04DX003 (sc), vehicle: Klucel + Tween-80 96 % of control | endpoint: mean survival time, dose: 200.0 mg/kg/injection, schedule: Q04DX003 (sc), vehicle: Klucel + Tween-80 100 % of control | endpoint: mean survival time, dose: 400.0 mg/kg/injection, schedule: Q04DX003 (sc), vehicle: Klucel + Tween-80 115 % of control | endpoint: mean survival time, dose: 600.0 mg/kg/injection, schedule: Q04DX003 (sc), vehicle: Klucel + Tween-80 96 % of control

O=c1cc[nH]c(=O)o1
inactive: endpoint: mean survival time, dose: 42.0 mg/kg/injection, schedule: Q01DX009 (ip), vehicle: water 122 % of control | [5] 114 % of control | [7] 92 % of control | endpoint: median survival time, dose: 63.0 mg/kg/injection, schedule: Q01DX009 (ip), vehicle: water 87 % of control

COC(=O)NC1C(C)OC(OC2C/C=C(/C)C3C=CC4C(OC5CC(OC6CC(OC7CC(O)C(O)C(C)O7)C(OC7CC(O)C(OC)C(C)O7)C(C)O6)C(O)C(C)O5)C(C)CC(C)C4C3(C)/C(O)=C3\C(=O)OC4(CC(C)C(CO)=CC4/C=C\2C)C3=O)CC1(C)[N+](=O)[O-] (centres undefined)
inactive: endpoint: median survival time, dose: 12.5 mg/kg/injection, schedule: Q01DX009 (ip), vehicle: water 109 % of control | endpoint: median survival time, dose: 25.0 mg/kg/injection, schedule: Q01DX009 (ip), vehicle: water 118 % of control | endpoint: median survival time, dose: 50.0 mg/kg/injection, schedule: Q01DX009 (ip), vehicle: water 110 % of control

NC/C(=N\Nc1ccc([N+](=O)[O-])cc1[N+](=O)[O-])c1ccccc1
inactive: endpoint: mean survival time, dose: 100.0 mg/kg/injection, schedule: Q04DX003 (ip), vehicle: saline 103 % of control | endpoint: mean survival time, dose: 200.0 mg/kg/injection, schedule: Q04DX003 (ip), vehicle: saline 100 % of control | endpoint: mean survival time, dose: 400.0 mg/kg/injection, schedule: Q04DX003 (ip), vehicle: saline 97 % of control
